The values below come from ChEMBL document CHEMBL1201862, “PubChem BioAssay data set” (2004).

Activity calls are given as the source filed them. A value given as a limit tells only on which side of the number the result lay.

What is called IC50 is the concentration that gives 50% inhibition. As usually defined, the EC50 is the midpoint of the concentration-response curve. The term CC50 denotes the concentration at which the toxic effect on the cells reaches its halfway point. Broadly, the AC50 is the midpoint of the concentration-response curve, whichever way the signal moves.

The target in test [1] is Melanin-concentrating hormone receptor 1 (Homo sapiens, UniProt Q99705). The test can be described thus: Fluorescence-based counterscreen for antagonists of the G-protein coupled receptor 7 (GPR7): cell-based high throughput dose response assay to identify antagonists of the melanin-concentrating hormone receptor 1 (MCHR1). In kind it is functional.
Chain of Melanin-concentrating hormone receptor 1 (Q99705 whole entry, the tested form may be a part): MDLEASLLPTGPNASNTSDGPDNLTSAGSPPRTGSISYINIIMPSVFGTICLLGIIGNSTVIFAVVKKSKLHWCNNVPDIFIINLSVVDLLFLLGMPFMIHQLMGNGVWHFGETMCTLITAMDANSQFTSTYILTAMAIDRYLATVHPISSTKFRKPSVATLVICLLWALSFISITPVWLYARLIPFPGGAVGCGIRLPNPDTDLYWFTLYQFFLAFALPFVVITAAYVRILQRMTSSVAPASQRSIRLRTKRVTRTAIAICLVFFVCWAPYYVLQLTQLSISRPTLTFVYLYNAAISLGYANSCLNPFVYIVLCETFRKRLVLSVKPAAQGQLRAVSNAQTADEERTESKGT
For test [2], the target named is T1, Carboxy-terminal domain RNA polymerase II polypeptide A small phosphatase 1 (Homo sapiens, UniProt Q9GZU7).
T1 sequence (Q9GZU7 whole entry): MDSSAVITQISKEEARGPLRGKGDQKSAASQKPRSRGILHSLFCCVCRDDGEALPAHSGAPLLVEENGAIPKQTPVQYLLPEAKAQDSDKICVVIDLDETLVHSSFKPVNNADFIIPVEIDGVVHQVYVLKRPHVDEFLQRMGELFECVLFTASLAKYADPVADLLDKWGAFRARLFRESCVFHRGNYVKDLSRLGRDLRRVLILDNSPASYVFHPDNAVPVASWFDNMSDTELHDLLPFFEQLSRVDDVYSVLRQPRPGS
The test can be described thus: inhibitors of CTDSP1, concentration-response testing, biochemical assay, absorbance-based, actives from ultra-high-throughput screening (AID 540297). In kind it is functional.

In test [3] the target is T2, Neuropeptides B/W receptor type 1 (Homo sapiens, UniProt P48145).
T2 sequence (P48145 whole entry): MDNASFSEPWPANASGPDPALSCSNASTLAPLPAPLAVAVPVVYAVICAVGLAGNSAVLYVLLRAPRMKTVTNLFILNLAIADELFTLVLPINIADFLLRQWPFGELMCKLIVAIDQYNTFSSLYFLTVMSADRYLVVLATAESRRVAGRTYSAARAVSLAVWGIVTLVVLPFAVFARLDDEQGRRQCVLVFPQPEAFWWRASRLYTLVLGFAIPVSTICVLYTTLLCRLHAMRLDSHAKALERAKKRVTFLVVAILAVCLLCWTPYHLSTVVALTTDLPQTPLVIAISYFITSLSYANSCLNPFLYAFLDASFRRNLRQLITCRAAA
The test can be described thus: Fluorescence-based dose response cell-based high throughput screening assay to identify antagonists of the G-protein coupled receptor 7 (GPR7). [Related pubchem assays: 1952 (Screening assay (GPR7 antagonists).), 1880 (Summary AID.)]. In kind it is functional.

The target in the next test is Prothrombin (Homo sapiens, UniProt P00734). The test can be described thus: Thrombin 1536 HTS Dose Response Confirmation. [Related pubchem assays: 1046 (Thrombin 1536 HTS; hits were confirmed in this assay)]. In kind it is functional.
Test [4] deals with Voltage-gated inwardly rectifying potassium channel KCNH2 (Homo sapiens, UniProt Q12809). The test can be described thus: hERG protection from proarrhythmic block, potency, dose response, cell-based, thallium flux (AID 2121). In kind it is ADME. (In general: hERG is a cardiac potassium channel; its block is linked to QT prolongation.)
Chain of Voltage-gated inwardly rectifying potassium channel KCNH2 (Q12809 whole entry): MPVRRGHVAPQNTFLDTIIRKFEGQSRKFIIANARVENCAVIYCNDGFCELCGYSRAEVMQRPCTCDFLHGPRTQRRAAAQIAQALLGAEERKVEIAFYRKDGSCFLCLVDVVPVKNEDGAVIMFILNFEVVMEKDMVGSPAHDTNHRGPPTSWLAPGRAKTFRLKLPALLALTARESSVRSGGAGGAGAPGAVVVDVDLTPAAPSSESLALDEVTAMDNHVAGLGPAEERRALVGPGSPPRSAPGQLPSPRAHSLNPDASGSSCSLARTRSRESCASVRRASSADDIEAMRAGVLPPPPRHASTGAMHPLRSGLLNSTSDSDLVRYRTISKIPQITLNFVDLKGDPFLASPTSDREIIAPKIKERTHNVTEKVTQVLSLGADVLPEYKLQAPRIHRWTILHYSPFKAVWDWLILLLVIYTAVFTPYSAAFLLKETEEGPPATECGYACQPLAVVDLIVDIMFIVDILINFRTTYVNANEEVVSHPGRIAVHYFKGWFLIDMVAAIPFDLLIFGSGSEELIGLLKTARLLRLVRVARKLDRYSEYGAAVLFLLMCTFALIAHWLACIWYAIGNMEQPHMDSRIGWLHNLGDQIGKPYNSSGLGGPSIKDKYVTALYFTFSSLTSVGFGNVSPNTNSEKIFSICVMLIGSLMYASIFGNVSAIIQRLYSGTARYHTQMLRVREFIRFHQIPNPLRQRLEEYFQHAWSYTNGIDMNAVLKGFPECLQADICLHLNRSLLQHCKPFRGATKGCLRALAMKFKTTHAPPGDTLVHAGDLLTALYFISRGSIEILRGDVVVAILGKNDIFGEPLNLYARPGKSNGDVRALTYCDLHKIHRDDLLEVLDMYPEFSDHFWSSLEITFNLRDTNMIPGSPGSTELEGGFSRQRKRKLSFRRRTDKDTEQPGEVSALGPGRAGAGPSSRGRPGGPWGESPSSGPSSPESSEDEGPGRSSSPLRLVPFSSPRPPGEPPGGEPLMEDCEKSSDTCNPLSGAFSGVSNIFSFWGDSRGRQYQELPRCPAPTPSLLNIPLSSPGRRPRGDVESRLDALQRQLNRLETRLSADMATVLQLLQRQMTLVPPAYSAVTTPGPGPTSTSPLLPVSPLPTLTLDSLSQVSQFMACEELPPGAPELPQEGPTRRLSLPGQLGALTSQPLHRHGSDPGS
A further test concerns Vero. The test can be described thus: Vero cell cytotoxicity, cytotoxicity control for flavivirus capping enzyme inhibitors (AID 588742). In kind it is functional. The settings on record: Chlorocebus sabaeus.
In test [5] the target is Glucose-6-phosphate 1-dehydrogenase (Homo sapiens, UniProt P11413). The test can be described thus: human G6PD enzyme inhibitors, dose response, selectivity assay for P. falciparum G6PD inhibitor project, biochemical, fluorescence (AID 504792). In kind it is functional.
Chain of Glucose-6-phosphate 1-dehydrogenase (P11413 whole entry): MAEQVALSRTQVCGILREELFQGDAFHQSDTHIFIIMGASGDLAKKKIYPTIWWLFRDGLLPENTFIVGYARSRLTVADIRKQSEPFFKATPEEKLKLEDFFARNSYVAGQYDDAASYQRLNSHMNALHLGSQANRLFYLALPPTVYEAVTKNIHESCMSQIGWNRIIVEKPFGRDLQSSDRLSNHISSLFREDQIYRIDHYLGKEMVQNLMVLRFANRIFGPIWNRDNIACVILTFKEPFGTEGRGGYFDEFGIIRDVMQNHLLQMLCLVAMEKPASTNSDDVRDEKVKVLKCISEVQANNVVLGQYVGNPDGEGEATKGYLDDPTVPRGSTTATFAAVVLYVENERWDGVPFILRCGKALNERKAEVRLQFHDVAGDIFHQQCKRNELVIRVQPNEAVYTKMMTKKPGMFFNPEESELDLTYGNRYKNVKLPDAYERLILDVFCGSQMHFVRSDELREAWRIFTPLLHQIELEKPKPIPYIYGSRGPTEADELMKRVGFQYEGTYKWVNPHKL
Test [6] addresses T3, Zinc finger protein mex-5 (Caenorhabditis elegans, UniProt Q9XUB2).
T3 sequence (Q9XUB2 whole entry): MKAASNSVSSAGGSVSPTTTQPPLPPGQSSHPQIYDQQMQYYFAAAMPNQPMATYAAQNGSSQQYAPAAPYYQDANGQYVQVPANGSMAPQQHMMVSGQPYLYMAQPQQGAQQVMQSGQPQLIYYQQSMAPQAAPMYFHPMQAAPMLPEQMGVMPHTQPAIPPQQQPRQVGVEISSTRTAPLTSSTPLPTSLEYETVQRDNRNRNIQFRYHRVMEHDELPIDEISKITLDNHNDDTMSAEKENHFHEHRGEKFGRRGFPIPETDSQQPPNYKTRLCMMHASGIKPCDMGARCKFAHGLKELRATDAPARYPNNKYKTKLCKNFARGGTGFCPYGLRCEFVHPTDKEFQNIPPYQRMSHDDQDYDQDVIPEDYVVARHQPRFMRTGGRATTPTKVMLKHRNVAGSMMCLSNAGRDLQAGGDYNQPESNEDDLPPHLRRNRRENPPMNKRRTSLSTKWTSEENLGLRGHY
The test can be described thus: MEX-5/TCR-2 RNA interaction inhibitors, dose response, biochemical, C. elegans, fluorescence polarization (AID 1960). (In general: Polarisation of emitted light reports the rotation of a fluorescent probe.)

The nature of test [7]: THP-1 cell cytotoxicity, dose response, cytotoxicity control for Vif-APOBEC3G degradation inhibitor project, THP-1 cells (AID 1117359). In kind it is functional. The settings on record: Human immunodeficiency virus 1, THP-1.
The target of the next test is Bcl-2-like protein 1 (Homo sapiens, UniProt Q07817). The test can be described thus: BCL-XL inhibitors, dose response, selectivity assay for MCL1 inhibitor project, biochemical, fluorescence polarization, 1536-well (AID 2218).
Chain of Bcl-2-like protein 1 (Q07817 whole entry): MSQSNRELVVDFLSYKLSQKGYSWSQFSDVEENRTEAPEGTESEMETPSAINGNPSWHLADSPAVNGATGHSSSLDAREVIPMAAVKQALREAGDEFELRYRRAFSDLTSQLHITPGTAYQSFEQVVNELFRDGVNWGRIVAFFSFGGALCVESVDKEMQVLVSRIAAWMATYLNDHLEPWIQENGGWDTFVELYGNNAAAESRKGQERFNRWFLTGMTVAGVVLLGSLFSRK
For test [8], the target named is T4, Induced myeloid leukemia cell differentiation protein Mcl-1 (Homo sapiens, UniProt Q07820). In kind it is functional.
T4 sequence (Q07820 whole entry): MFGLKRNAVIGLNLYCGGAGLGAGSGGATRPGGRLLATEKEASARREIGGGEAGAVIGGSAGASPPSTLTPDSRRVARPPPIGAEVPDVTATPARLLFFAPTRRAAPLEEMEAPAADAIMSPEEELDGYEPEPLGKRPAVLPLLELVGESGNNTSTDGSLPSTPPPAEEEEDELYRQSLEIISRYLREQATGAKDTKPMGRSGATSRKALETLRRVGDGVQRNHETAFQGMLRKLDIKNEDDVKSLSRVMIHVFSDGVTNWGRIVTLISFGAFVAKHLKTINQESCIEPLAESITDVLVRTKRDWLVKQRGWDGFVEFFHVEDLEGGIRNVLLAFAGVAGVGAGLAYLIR
Test [9] in a line: human group III sPLA2 inhibitors, dose response, biochemical, QFRET, IC50 (AID 743457).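 Note: green fluorescence rise as the enzyme cleaves BODIPY PC-A2 in liposomes; potency for inhibition of the enzyme.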
The target of test [10] is T4, Induced myeloid leukemia cell differentiation protein Mcl-1. The test can be described thus: MCL1-BIM BH3 interaction inhibitors, dose response, biochemical, fluorescence polarization, BIM-BH3 peptide, 1536-well (AID 2217).
The target in another test is Genome polyprotein (dengue virus type 2, UniProt P29990). The test can be described thus: Dengue-2 NS5 methyltransferase inhibitors, primary screen, biochemical, confirmation dose response (AID 588689). In kind it is functional.
Chain of Genome polyprotein (P29990 2492-3391 limits assumed): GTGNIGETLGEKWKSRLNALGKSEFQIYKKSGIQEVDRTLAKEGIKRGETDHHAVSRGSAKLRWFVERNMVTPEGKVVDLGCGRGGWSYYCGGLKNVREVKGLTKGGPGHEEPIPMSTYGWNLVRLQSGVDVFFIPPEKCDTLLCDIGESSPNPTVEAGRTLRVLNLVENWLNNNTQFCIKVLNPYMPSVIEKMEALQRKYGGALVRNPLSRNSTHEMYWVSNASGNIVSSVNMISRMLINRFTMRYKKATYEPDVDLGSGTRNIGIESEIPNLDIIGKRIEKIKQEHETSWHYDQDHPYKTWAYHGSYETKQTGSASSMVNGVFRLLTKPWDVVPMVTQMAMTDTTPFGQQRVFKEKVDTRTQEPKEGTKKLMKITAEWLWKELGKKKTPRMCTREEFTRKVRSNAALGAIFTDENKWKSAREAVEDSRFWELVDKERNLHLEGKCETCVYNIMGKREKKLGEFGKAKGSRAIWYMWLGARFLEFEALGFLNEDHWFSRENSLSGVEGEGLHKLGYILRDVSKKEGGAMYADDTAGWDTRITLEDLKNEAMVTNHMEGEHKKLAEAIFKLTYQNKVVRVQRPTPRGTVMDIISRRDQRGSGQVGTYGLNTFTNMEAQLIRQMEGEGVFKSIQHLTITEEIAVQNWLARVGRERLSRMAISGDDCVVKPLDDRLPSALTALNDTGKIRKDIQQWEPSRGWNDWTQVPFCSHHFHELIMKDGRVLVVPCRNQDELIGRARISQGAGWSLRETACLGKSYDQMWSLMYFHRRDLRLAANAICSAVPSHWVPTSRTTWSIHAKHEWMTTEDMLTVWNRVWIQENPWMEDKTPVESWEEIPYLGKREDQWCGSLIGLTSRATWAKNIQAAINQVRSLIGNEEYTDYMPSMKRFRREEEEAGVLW
A short description of test [11]: HepG2 cell cytotoxicity, dose response, cytotoxicity control, ATP luminescence, cherry-pick, activator set 2 (AID 1053143). In kind it is functional, cell-based.
Test [12] deals with T5, RNA-binding protein pos-1 (Caenorhabditis elegans, UniProt G5EF15).
T5 sequence (G5EF15 whole entry): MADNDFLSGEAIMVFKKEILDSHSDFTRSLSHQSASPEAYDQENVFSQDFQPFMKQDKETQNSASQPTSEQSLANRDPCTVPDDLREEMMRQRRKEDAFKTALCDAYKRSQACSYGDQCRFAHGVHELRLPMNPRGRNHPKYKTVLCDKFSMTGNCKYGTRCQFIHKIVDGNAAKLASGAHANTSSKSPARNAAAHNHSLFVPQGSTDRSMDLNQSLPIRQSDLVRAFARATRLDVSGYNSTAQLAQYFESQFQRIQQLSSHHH
The test can be described thus: inhibitors of POS-1/mex-3 RNA binding, dose response, biochemical, fluorescence polarization (AID 1964).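 Note: purified POS-1 fused to maltose binding protein made in E. coli; potency of compounds blocking POS-1 binding to fluorescent RNA.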

The nature of test [13]: Luminescence Cell-Based Dose Response HTS to Identify Inhibitors of 5'UTR Stem-Loop Driven Prion Protein mRNA Translation in H4 Neuroglioblastoma Cells. [Related pubchem assays: 1827 (Project Summary), 1813 (Primary HTS)]. In kind it is functional.
Test [14] in a line: cytotoxicity toward DRD oncogenic fibroblasts, dose response, cell-based, non-viral oncogenic, luminescence (AID 1934). In kind it is functional. The settings on record: Homo sapiens.
Test [15] in a line: luciferase reporter signal reduction – luminescence, H4-C neuroglioblastoma cells, dose response (AID 2458).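 Note: H4 neuroglioblastoma cells stably carrying a luciferase reporter gene fusion.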 In kind it is functional, cell-based.
Test [16] in a line: cells. In kind it is functional, cell-based.
The nature of test [17]: inhibitors of firefly luciferase expression or activity, dose response, H4 neuroglioma cells, luminescence (AID 1990). In kind it is functional, cell-based.
Test [18] in a line: inhibitors of SNCA 5'UTR-driven translation, confirmation, luminescence, H4 neuroglioblastoma cells, dose confirmation (AID 2454).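 Note: H4 neuroglioblastoma cells carrying an alpha-synuclein 5'UTR luciferase reporter; potency for inhibition of the luciferase signal.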 In kind it is functional, cell-based.
Test [19] has as its system BJ. The test can be described thus: cells. In kind it is functional, cell-based. The settings on record: Homo sapiens.
The subject of test [20] is BJ. The test can be described thus: cytotoxicity toward Ras-transformed BJeLR fibroblasts, dose response, cell-based, alamar blue fluorescence, cherrypicked samples (AID 2631).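 Note: confirmatory dose-response assay in RAS-dependent BJ fibroblasts engineered with TERT, LT and ST, with cytotoxicity read by fluorescence.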 The settings on record: Homo sapiens. In kind it is functional.
Test [21] deals with BJ. The test can be described thus: cytotoxicity toward BJ-TERT-LT-ST fibroblasts, dose response, cell-based, RAS-independent, luminescence (AID 1935).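 Note: BJ fibroblasts immortalized with TERT plus LT and ST oncogenes.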 In kind it is functional. The settings on record: Homo sapiens.
Test [22] can be described thus: cytotoxicity in HEK-293T cells, dose response, cytotoxicity control for TCR NF-kB inhibitor project, luminescence, T-cell screen hits (AID 489026).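 Note: cells exposed to compound about 14 hours before the viability readout.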 In kind it is functional, cell-based.
In test [23] the target is T6, Fructose-bisphosphate aldolase (Mycobacterium tuberculosis, UniProt P9WQA3).
T6 sequence (P9WQA3 whole entry): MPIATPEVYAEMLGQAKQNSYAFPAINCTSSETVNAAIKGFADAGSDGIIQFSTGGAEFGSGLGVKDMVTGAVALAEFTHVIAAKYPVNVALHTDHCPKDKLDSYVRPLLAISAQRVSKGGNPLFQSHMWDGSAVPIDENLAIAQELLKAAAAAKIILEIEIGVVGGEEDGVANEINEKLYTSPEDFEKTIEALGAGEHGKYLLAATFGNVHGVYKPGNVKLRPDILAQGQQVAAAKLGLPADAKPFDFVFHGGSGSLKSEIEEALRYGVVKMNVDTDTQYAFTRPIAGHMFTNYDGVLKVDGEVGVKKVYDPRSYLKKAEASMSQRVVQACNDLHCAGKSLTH
The test can be described thus: Fluorescence-based biochemical high throughput dose response assay for inhibitors of the fructose-bisphosphate aldolase (FBA) of M. tuberculosis. In kind it is functional.

Test [24] is described as follows: inhibitors of SNCA 5'UTR-driven reporter translation, confirmation, H4 neuroglioma cells, luminescence (AID 1988). In kind it is functional, cell-based.
Test [25] relates to BJ. The test can be described thus: cytotoxicity toward BJ-TERT fibroblasts, dose response, cell-based, RAS-independent, luminescence (AID 1933). In kind it is functional. The settings on record: Homo sapiens.
Test [26] in a line: cytotoxicity toward NIH3T3 fibroblasts, dose response, counter-screen, cell-based, ATP luminescence, mouse fibroblasts (AID 2010).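 Note: cells exposed to compound for about 90 hours before reading.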 In kind it is functional.
Test [27] is described as follows: cells.
Test [28] in a line: inhibitors of intracellular T. cruzi replication, confirmation, NIH3T3 host cells, beta-gal luminescence (AID 2044).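 Note: intracellular parasites grown in NIH/3T3 mouse fibroblasts as host cells; luminescent beta-galactosidase reporter signal from transgenic T. cruzi replicating inside host cells; inhibitors lower the luminescence signal.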 In kind it is functional, cell-based.
The nature of test [29]: enhancers of respiration in Yfh1-depleted yeast, dose response, Friedreich's ataxia, plus single-dose screen (AID 1465).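 Note: yeast depleted of Yfh1p frataxin homolog grown on glycerol needing respiration; WST-1 tetrazolium dye reduction as measure of cellular dehydrogenase metabolic activity.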 In kind it is functional.

Regarding `Cc1ccccc1NC(=O)Cn1nnc(S(=O)(=O)c2ccc(C(C)(C)C)cc2)c1N`, the IC50 in test [1] is > 43.8 µM (not active); in test [2] it was 7.74 µM (active); in [3], > 43.8 µM (not active).

On to `CCc1ccc(C2CC(c3ccccc3Cl)Nc3nc(N)nn32)cc1` (configuration not stated), for which the IC50 in [1] was 19.6 µM (not active); in test [3] it was 5.58 µM (active).

In the case of `CCC(=O)n1nc(-c2ccc(OC)cc2)nc1NCc1cccs1`, at Prothrombin, the 50% inhibitory concentration (IC50) is 1.48 µM (active).

Consider `CCn1c(O)c(N=NC2=NC(=O)CS2)c2ccccc21`, for which, in test [4], the concentration for a half-maximal effect (EC50) is 4.83 µM (active).

On to `C=CC/N=c1\scc(-c2ccco2)n1/N=C/c1ccc(O)c(O)c1O`, for which the CC50 is 22.8 µM (active) in the test on Vero and > 40 µM (active) in test [7]. For the same molecule, the IC50 in [5] is > 80 µM (inactive); at Bcl-2-like protein 1 it was > 109 µM (not active); in test [8] it was 2.81 µM (not active); in test [9], 49.6 µM (inactive); in test [10], 2.94 µM (active); on Genome polyprotein it was 83.8 µM (active). The EC50 in test [6] is 2.68 µM (active); in test [12] it was 40.6 µM (active). In addition, the concentration at half-maximal activity (AC50) in test [11] was 26 µM (active).

On to `N#Cc1ccc(-c2cccs2)nc1SCc1cccnc1`, for which the EC50 in test [13] is 0.156 µM (active); in test [14], 11.5 µM (inconclusive); in test [15] it was 0.841 µM (active); in the test “cells [16]” it was 1.24 µM (active); in [17] it was 5.46 µM (active); in test [18], > 12 µM (not active). The EC50 in the test on BJ [19] was 15 µM (active); in the test with BJ [20], 0.188 µM (active); in the test with BJ [21] it was 3.66 µM (inconclusive); in test [24], < 0.1 µM (active); in the test on BJ [25], 7.55 µM (inconclusive). In addition, the IC50 in [22] is > 80 µM (inactive); in test [23], > 1.11 µM (active).

On to `O=C(NCC(c1cccnc1)N1CCN(c2ccccc2)CC1)Oc1ccccc1` (configuration not stated), for which the concentration giving a half-maximal response (EC50) is > 30 µM (not active) in test [26], 0.052 µM (active) in “cells [27]” and < 0.1 µM (active) in test [28].

`CN(C)CCCN(C(=O)COc1ccc(Cl)cc1)c1nc2cc3c(cc2s1)OCCO3`: the concentration for a half-maximal effect (EC50) in [26] is > 60 µM (not active); in the test “cells [27]”, 0.069 µM (active); in [28], < 0.1 µM (active).

Turning to `O=C(NNc1nc2ccc(F)cc2s1)c1cccc(F)c1`, the values for the EC50 in test [29], in test [26] and in test [28] were > 100 µM (active), 6.48 µM (active) and 3.84 µM (active), respectively.

Regarding `CCN(CC)c1ccc(NC(=S)NC(=O)c2cccs2)cc1`, the EC50 in [4] was 1.24 µM (active).

Consider `COC(=O)c1nnc(NC(=O)c2ccc(F)cc2)[nH]1`, for which, at Prothrombin, the half-inhibitory concentration (IC50) is 0.297 µM (active).
